Measurements reported in US8586611B2 (priority 2005, dated 2013).

What was measured:
Assay type in all cases: in vivo
Plasmopara viticola = test: Test B: grape downy mildew, spray 24 h after inoculation (disease rating, 100 = 100% disease control)
How it was run: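 This is a curative spray test, applied 24 h after inoculation. Compounds in 50/50 acetone–water with 250 ppm Trem 014 surfactant were sprayed to run-off on P. viticola-infected seedlings, with 200 ppm equating to 500 g/ha. Plants were kept 5 days in a 20 °C growth chamber, then 24 h humid, and scored 0–100 for disease control relative to controls.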

[1] = system: Erysiphe graminis f. sp. tritici; test: Test E: wheat powdery mildew, spray the day before inoculation (disease rating, 100 = 100% disease control)
How it was run: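 Protective test: spores of E. graminis f. sp. tritici dusted on wheat seedlings one day after run-off spraying of test suspension (acetone/water with 250 ppm surfactant; 200 ppm = 500 g/ha). Ratings after 7 days in growth chamber at 20° C, 100 = full control, 0 = none, relative to controls.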

Phytophthora infestans [2] = test: whole plant or invertebrate; conditions: tomato late blight
Phytophthora infestans [3] = test: whole plant or invertebrate; conditions: tomato late blight; remark: listed apart in the source
[4] = spray 24 h after inoculation, compounds without asterisk (not 40 or 10 ppm)
[5] = spray the day before inoculation, compounds without asterisk (not 40 or 10 ppm)
[6] = spray 17 h after inoculation, compounds without asterisk (not 40 or 10 ppm)
[7] = spray 24 h after inoculation, tested at 40 ppm
[8] = spray the day before inoculation, tested at 40 ppm
[9] = spray 17 h after inoculation, tested at 40 ppm
[10] = spray 24 h after inoculation, tested at 10 ppm
[11] = spray the day before inoculation, tested at 10 ppm
[12] = spray 17 h after inoculation, tested at 10 ppm
[13] = sprayed 24 h after inoculation, tested at 10 ppm (**)
[14] = sprayed the day before inoculation, 7 days at 20° C., tested at 10 ppm (**)
[15] = sprayed 17 h after inoculation, tested at 10 ppm (**)
[16] = sprayed the day before inoculation, tested at 10 ppm (**)
[17] = sprayed 24 h after inoculation, unmarked compounds (no asterisk, not 40 or 10 ppm)
[18] = sprayed the day before inoculation, 7 days at 20° C., unmarked compounds (no asterisk, not 40 or 10 ppm)
[19] = sprayed 17 h after inoculation, unmarked compounds (no asterisk, not 40 or 10 ppm)
[20] = sprayed the day before inoculation, unmarked compounds (no asterisk, not 40 or 10 ppm)

Structure (SMILES)	Test B disease rating (100 = 100% disease control, 0 = no disease control) (Plasmopara viticola; [4]) [%]	Test E disease rating (100 = 100% disease control, 0 = no disease control) [1, 5] [%]	Test D disease rating (100 = 100% disease control, 0 = no disease control) (Phytophthora infestans [2]; [6]) [%]	Test C disease rating (100 = 100% disease control, 0 = no disease control) (Phytophthora infestans [3]; [5]) [%]	further results
Cc1nc(C2CCN(C(=O)Cn3nc(C(F)(F)F)cc3C)CC2)sc1C(=O)N(C)[C@@H]1CCCc2ccccc21 [compound 227]	44	0	0	63	
CCC1C=Cc2ccccc2C1N(C)C(=O)c1csc(C2CCN(C(=O)Cn3nc(C(F)(F)F)cc3C)CC2)n1 (stereo not drawn) [compound 228]	88	0	99	100	
COC(=O)C1CC(N(C)C(=O)c2csc(C3CCN(C(=O)Cn4nc(C(F)(F)F)cc4C)CC3)n2)c2ccccc21 (stereo not drawn) [compound 229]	97	0	90	100	
Cc1cc(C(F)(F)F)nn1CC(=O)N1CCC(c2nc(C(=O)N(C)C3c4ccccc4C=CC3C)cs2)CC1 (stereo not drawn) [compound 230]	87	0	94	100	
Cc1cc(C(F)(F)F)nn1CC(=O)N1CCC(c2nc(C(=O)N(C)C3CC(CO)c4ccccc43)cs2)CC1 (stereo not drawn) [compound 235]	94	0	99	100	
Cc1cc(C(F)(F)F)nn1CC(=O)N1CCC(c2nc(C(=O)N(C)C(C)(C)c3ccccc3)cs2)CC1 [compound 237]	81	62	99	99	
CN(C(=O)c1csc(C2CCN(C(=O)Cn3nc(C(F)(F)F)cc3C(C)(C)C)CC2)n1)[C@@H]1CCCc2ccccc21 [compound 239]					Test B disease rating (100 = 100% disease control, 0 = no disease control) (Plasmopara viticola; [7]): 63%; Test E disease rating (100 = 100% disease control, 0 = no disease control) [1, 8]: 0%; Test D disease rating (100 = 100% disease control, 0 = no disease control) (Phytophthora infestans [2]; [9]): 0%; Test C disease rating (100 = 100% disease control, 0 = no disease control) (Phytophthora infestans [3]; [8]): 57%
CC(C)c1cc(C(F)(F)F)nn1CC(=O)N1CCC(c2nc(C(=O)N(C)[C@@H]3CCCc4ccccc43)cs2)CC1 [compound 240]					Test B disease rating (100 = 100% disease control, 0 = no disease control) (Plasmopara viticola; [10]): 99%; Test E disease rating (100 = 100% disease control, 0 = no disease control) [1, 11]: 0%; Test D disease rating (100 = 100% disease control, 0 = no disease control) (Phytophthora infestans [2]; [12]): 99%; Test C disease rating (100 = 100% disease control, 0 = no disease control) (Phytophthora infestans [3]; [11]): 100%
Cc1cc(C(F)(F)F)nn1CC(=O)N1CCCN(c2nc(C(=O)N(C)[C@@H]3CCCc4ccccc43)cs2)CC1 [compound 241]	17	47	68	99	
Cc1cc(C(F)(F)F)nn1CC(=O)N1CCCN(c2nc(C(=O)N(C)[C@@H]3CCCc4ccccc43)cs2)CC1.Cl [compound 242]	16	0	73	100	
Cc1ccccc1C(C)N(C)C(=O)c1csc(C2CCN(C(=O)Cn3nc(C(F)(F)F)cc3C)CC2)n1 (stereo not drawn) [compound 243]					Test B disease rating (100 = 100% disease control, 0 = no disease control) (Plasmopara viticola; [7]): 91%; Test E disease rating (100 = 100% disease control, 0 = no disease control) [1, 8]: 0%; Test D disease rating (100 = 100% disease control, 0 = no disease control) (Phytophthora infestans [2]; [9]): 82%; Test C disease rating (100 = 100% disease control, 0 = no disease control) (Phytophthora infestans [3]; [8]): 86%
COC(=O)[C@H](c1ccccc1)N(C)C(=O)c1csc(C2CCN(C(=O)Cn3nc(C(F)(F)F)cc3C)CC2)n1 [compound 244]	100	0	93	99	
Cc1cc(C(F)(F)F)nn1CC(=O)N1CCC(c2nc(C(=O)N(C)[C@H](C(=O)O)c3ccccc3)cs2)CC1 [compound 245]	0	0	0	47	
Cc1cc(C(F)(F)F)nn1CC(=O)N1CCC(c2nc(C(=O)N(C)[C@H](C(N)=O)c3ccccc3)cs2)CC1 [compound 247]	0	0	17	90	
Cc1cc(C(F)(F)F)nn1CC(=O)N1CCC(c2nc(C(=O)N(C)Cc3ccccc3)cs2)CC1 [compound 248]	88	53	80	100	
Cc1cc(C(F)(F)F)nn1CC(=O)N1CCC(c2nc(C(=O)N(C)C(C)c3ccccc3F)cs2)CC1 (stereo not drawn) [compound 250]					Test B disease rating (100 = 100% disease control, 0 = no disease control) (Plasmopara viticola; [10]): 97%; Test E disease rating (100 = 100% disease control, 0 = no disease control) [1, 11]: 0%; Test D disease rating (100 = 100% disease control, 0 = no disease control) (Phytophthora infestans [2]; [12]): 71%; Test C disease rating (100 = 100% disease control, 0 = no disease control) (Phytophthora infestans [3]; [11]): 97%
Cc1cc(C(F)(F)F)nn1CC(=O)N1CCC(c2nc(C(=O)N(C)C(C)c3ccccc3Cl)cs2)CC1 (stereo not drawn) [compound 251]					Test B disease rating (100 = 100% disease control, 0 = no disease control) (Plasmopara viticola; [10]): 100%; Test E disease rating (100 = 100% disease control, 0 = no disease control) [1, 11]: 0%; Test D disease rating (100 = 100% disease control, 0 = no disease control) (Phytophthora infestans [2]; [12]): 97%; Test C disease rating (100 = 100% disease control, 0 = no disease control) (Phytophthora infestans [3]; [11]): 100%
Cc1cc(C(F)(F)F)nn1CC(=O)N1CCC(c2nc(C(=O)N(C)C(C)c3ccccc3Br)cs2)CC1 (stereo not drawn) [compound 252]					Test B disease rating (100 = 100% disease control, 0 = no disease control) (Plasmopara viticola; [13]): 99; Test E disease rating (100 = 100% disease control, 0 = no disease control) [1, 14]: 19; Test D disease rating (100 = 100% disease control, 0 = no disease control) (Phytophthora infestans [2]; [15]): 85; Test C disease rating (100 = 100% disease control, 0 = no disease control) (Phytophthora infestans [3]; [16]): 99
Cc1cc(C(F)(F)F)nn1CC(=O)N1CCC(c2nc(C(=O)N(C)C(c3ccc(Cl)cc3)C(F)(F)F)cs2)CC1 (stereo not drawn) [compound 253]					Test B disease rating (100 = 100% disease control, 0 = no disease control) (Plasmopara viticola; sprayed 24 h after inoculation, tested at 40 ppm (*)): 96; Test E disease rating (100 = 100% disease control, 0 = no disease control) ([1]; sprayed the day before inoculation, 7 days at 20° C., tested at 40 ppm (*)): 0; Test D disease rating (100 = 100% disease control, 0 = no disease control) (Phytophthora infestans [2]; sprayed 17 h after inoculation, tested at 40 ppm (*)): 67; Test C disease rating (100 = 100% disease control, 0 = no disease control) (Phytophthora infestans [3]; sprayed the day before inoculation, tested at 40 ppm (*)): 90
COc1ccccc1C(C)N(C)C(=O)c1csc(C2CCN(C(=O)Cn3nc(C(F)(F)F)cc3C)CC2)n1 (stereo not drawn) [compound 255]					Test B disease rating (100 = 100% disease control, 0 = no disease control) (Plasmopara viticola; [13]): 25; Test E disease rating (100 = 100% disease control, 0 = no disease control) [1, 14]: 0; Test D disease rating (100 = 100% disease control, 0 = no disease control) (Phytophthora infestans [2]; [15]): 0; Test C disease rating (100 = 100% disease control, 0 = no disease control) (Phytophthora infestans [3]; [16]): 9
C[C@@H](NC(=O)c1csc(C2CCN(C(=O)Cc3cccc(Br)c3)CC2)n1)c1ccc(F)cc1 [compound 271]					Test B disease rating (100 = 100% disease control, 0 = no disease control) (Plasmopara viticola; [17]): 7; Test E disease rating (100 = 100% disease control, 0 = no disease control) [1, 18]: 0; Test D disease rating (100 = 100% disease control, 0 = no disease control) (Phytophthora infestans [2]; [19]): 0; Test C disease rating (100 = 100% disease control, 0 = no disease control) (Phytophthora infestans [3]; [20]): 67
C[C@@H](NC(=O)c1csc(C2CCN(C(=O)Cc3cccc(Br)c3)CC2)n1)C1CCCCC1 [compound 272]					Test B disease rating (100 = 100% disease control, 0 = no disease control) (Plasmopara viticola; [17]): 14; Test E disease rating (100 = 100% disease control, 0 = no disease control) [1, 18]: 0; Test D disease rating (100 = 100% disease control, 0 = no disease control) (Phytophthora infestans [2]; [19]): 0; Test C disease rating (100 = 100% disease control, 0 = no disease control) (Phytophthora infestans [3]; [20]): 50
C[C@@H](NC(=O)c1csc(C2CCN(C(=O)Cc3cccc(Br)c3)CC2)n1)c1ccc([N+](=O)[O-])cc1 [compound 273]					Test B disease rating (100 = 100% disease control, 0 = no disease control) (Plasmopara viticola; [17]): 44; Test E disease rating (100 = 100% disease control, 0 = no disease control) [1, 18]: 0; Test D disease rating (100 = 100% disease control, 0 = no disease control) (Phytophthora infestans [2]; [19]): 0; Test C disease rating (100 = 100% disease control, 0 = no disease control) (Phytophthora infestans [3]; [20]): 0
Cc1ccc([C@@H](C)NC(=O)c2csc(C3CCN(C(=O)Cc4cccc(Br)c4)CC3)n2)cc1 [compound 274]					Test B disease rating (100 = 100% disease control, 0 = no disease control) (Plasmopara viticola; [17]): 29; Test E disease rating (100 = 100% disease control, 0 = no disease control) [1, 18]: 0; Test D disease rating (100 = 100% disease control, 0 = no disease control) (Phytophthora infestans [2]; [19]): 0; Test C disease rating (100 = 100% disease control, 0 = no disease control) (Phytophthora infestans [3]; [20]): 37
